Experimental data taken from BindingDB's records for PubMed 26907156 (n/a, 2016).

Each molecule was assayed against CDK2/Cyclin E (assay: Inhibition of CDK2/Cyclin E (unknown origin) using histone as substrate incubated for 30 mins in presence of gamma[33P]ATP by digital imaging analysis).

IC50, 20 nM:
CC(C)n1cnc2c(NCc3cc(Cl)ccc3O)nc(NCCC(C)(C)O)nc21
CCC(CO)Nc1nc(NCc2cc(C)ccc2O)c2ncn(C(C)C)c2n1 (stereo not drawn)
COc1cccc(CNc2nc(NC3CCCCC3N)nc3c2ncn3C(C)C)c1O (stereo not drawn)
